pIC50: −log10 of the molar value.
Each compound was assayed against human PAD4 (hPAD4) (Homo sapiens, UniProt Q9UM07) (assay: RFMS human PAD4 functional assay (rapid-fire mass spectrum)). Details: 5 nM hPAD4 enzyme, 250 μM BAEE, 50 μM Calcium; 30 min preincubation, 90 min reaction at 37° C.
Assay type: biochemical
In short: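 PAD4 (10 nM) preincubated 30 min with compound (top final 50 μM), then BAEE substrate added in pH 7.5 HEPES buffer with DTT, 50 μM calcium, TPEN; 90 min at 37° C. After TCA quench, citrulline derivatized with phenyl glyoxal (4 mM final, 30 min, 37° C) and quantified by RapidFire MS against internal standard.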

human PAD4 (hPAD4), sequence (Q9UM07 whole entry): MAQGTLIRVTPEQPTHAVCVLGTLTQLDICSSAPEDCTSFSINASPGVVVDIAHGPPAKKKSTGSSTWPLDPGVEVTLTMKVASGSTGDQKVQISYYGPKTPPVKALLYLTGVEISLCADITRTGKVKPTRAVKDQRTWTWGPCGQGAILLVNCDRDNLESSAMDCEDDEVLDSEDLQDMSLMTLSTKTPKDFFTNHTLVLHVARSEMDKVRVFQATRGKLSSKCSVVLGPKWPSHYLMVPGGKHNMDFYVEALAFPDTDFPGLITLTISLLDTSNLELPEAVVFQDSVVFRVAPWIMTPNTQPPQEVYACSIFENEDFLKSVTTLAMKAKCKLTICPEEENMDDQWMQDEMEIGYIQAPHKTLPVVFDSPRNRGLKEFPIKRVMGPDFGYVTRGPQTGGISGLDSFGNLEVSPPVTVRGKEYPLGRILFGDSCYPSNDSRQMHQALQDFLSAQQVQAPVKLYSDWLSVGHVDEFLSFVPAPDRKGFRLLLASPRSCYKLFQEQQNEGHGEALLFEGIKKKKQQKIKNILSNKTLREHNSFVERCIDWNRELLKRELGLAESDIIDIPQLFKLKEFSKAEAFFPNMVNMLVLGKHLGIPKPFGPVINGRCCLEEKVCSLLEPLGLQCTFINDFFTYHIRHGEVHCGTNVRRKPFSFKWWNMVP

Q: `COc1cc(C(=O)N2C[C@H]3CC[C@@H]2[C@@H]3N)cc2nc(-c3cc4cccnc4n3CC3CC3)n(CC3CN(S(=O)(=O)c4ccc(Cl)nc4)C3)c12` [Example 334, (1R,4R,7R)-2-[1-({1-[(6-chloropyridin-3-yl)sulfonyl]azetidin-3-yl}methyl)-2-[1-(cyclopropylmethyl)-1H-pyrrolo[2,3-b]pyridin-2-yl]-7-methoxy-1H-1,3-benzodiazole-5-carbonyl]-2-azabicyclo[2.2.1]heptan-7-amine] was tested. Which pIC50 did it give?
A: The pIC50 was 6.65.

Q: “6-[(3S)-3-({5-[(1R,4R,7R,)-7- amino-2- azabicyc1o[2.2.1]heptane-2- carbonyl]-7-methoxy-2-{1- methyl-1H-pyrrolo[2,3- b]pyridin-2-yl}-1H-1,3- benzodiazol-1- yl}methyl)pyrrolidin-1- yl]pyrazine-2-carbonitrile [Example 235]” was tested. Which pIC50 did it give?
A: Its pIC50 is 6.44.

Q: With `COc1cc(C(=O)N2CC3CCC2[C@@H]3N)cc2nc(-c3cc4ccccc4n3CC3CC3)n(Cc3cnn(-c4cncc(F)c4)c3)c12` (stereo partly drawn) [Example 359, (7R)-2-{2-[1-(cyclopropylmethyl)-1H-indol-2-yl]-1-{[1-(5-fluoropyridin-3-yl)-1H-pyrazol-4-yl]methyl}-7-methoxy-1H-1,3-benzodiazole-5-carbonyl}-2-azabicyclo[2.2.1]heptan-7-amine] as the compound, how does the pIC50 read?
A: Its pIC50 is 7.64.

Q: With `COc1cc(C(=O)N2C[C@H](N)C[C@@H](F)C2)cc2nc(-c3cc4ccccc4n3CC3CC3)n(Cc3cnn(-c4ccccc4)c3)c12` [Example 261, (3R,5R)-1-{2-[1-(cyclopropylmethyl)-1H-indol-2-yl]-7-methoxy-1-[(1-phenyl-1H-pyrazol-4-yl)methyl]-1H-1,3-benzodiazole-5-carbonyl}-5-fluoropiperidin-3-amine] as the compound, how does the pIC50 read?
A: The pIC50 was 7.31.

Q: `COc1cc(C(=O)N2C[C@H]3CC[C@@H]2[C@@H]3N)cc2nc(-c3cc4cccnc4n3CC3CC3)n(C3CN(c4cnc(C#N)nc4)C3)c12` [Example 82, 5-(3-{5-[(1R,4R,7R)-7-amino-2-azabicyclo[2.2.1]heptane-2-carbonyl]-2-[1-(cyclopropylmethyl)-1H-pyrrolo[2,3-b]pyridin-2-yl]-7-methoxy-1H-1,3-benzodiazol-1-yl}azetidin-1-yl)pyrimidine-2-carbonitrile] was tested. Which pIC50 did it give?
A: Its pIC50 is 6.37.

Q: `COc1cc(C(=O)N2CC3CCC2[C@@H]3N)cc2nc(-c3cc4ccccc4n3CC3CC3)n(Cc3cnn(-c4cccnc4O)c3)c12` (stereo partly drawn) [Example 384, 3-[4-({5-[(7R)-7-amino-2-azabicyclo[2.2.1]heptane-2-carbonyl]-2-[1-(cyclopropylmethyl)-1H-indol-2-yl]-7-methoxy-1H-1,3-benzodiazol-1-yl}methyl)-1H-pyrazol-1-yl]pyridin-2-ol] was tested. Which pIC50 did it give?
A: Its pIC50 is 7.39.

Q: `COc1cc(C(=O)N2C[C@H](N)C[C@@H](F)C2)cc2nc(-c3cc4ccccc4n3CC3CC3)n(Cc3cnn(C)c3C)c12` [Example 506, (3R,5R)-1-{2-[1-(cyclopropylmethyl)-1H-indol-2-yl]-1-[(1,5-dimethyl-1H-pyrazol-4-yl)methyl]-7-methoxy-1H-1,3-benzodiazole-5-carbonyl}-5-fluoropiperidin-3-amine] was tested. Which pIC50 did it give?
A: Its pIC50 is 6.65.

Q: How did the pIC50 turn out when `COc1cc(C(=O)N2C[C@H]3CC[C@@H]2[C@@H]3N)cc2nc(-c3cc4cccnc4n3CC3CC3)n(CC3CN(C(=O)c4ccnc(Cl)c4)C3)c12` [Example 107, (1R,4R,7R)-2-(1-{[1-(2-chloropyridine-4-carbonyl)azetidin-3-yl]methyl}-2-[1-(cyclopropylmethyl)-1H-pyrrolo[2,3-b]pyridin-2-yl]-7-methoxy-1H-1,3-benzodiazole-5-carbonyl)-2-azabicyclo[2.2.1]heptan-7-amine] was run?
A: The pIC50 was 7.48.

Q: With `COc1cc(C(=O)N2C[C@H]3CC[C@@H]2[C@@H]3N)cc2nc(-c3cc4cccnc4n3C)n(CC3CN(c4ccnc(C#N)n4)C3)c12` [Example 26, 4-[3-({5-[(1R,4R,7R)-7-amino-2-azabicyclo[2.2.1]heptane-2-carbonyl]-7-methoxy-2-{1-methyl-1H-pyrrolo[2,3-b]pyridin-2-yl}-1H-1,3-benzodiazol-1-yl}methyl)azetidin-1-yl]pyrimidine-2-carbonitrile] as the compound, how does the pIC50 read?
A: Its pIC50 is 7.14.

Q: With `COc1ccc(-n2cc(Cn3c(-c4cc5ccccc5n4CC4CC4)nc4cc(C(=O)N5CC6CCC5[C@@H]6N)cc(OC)c43)cn2)cn1` (stereo partly drawn) [Example 354, (7R)-2-{2-[1-(cyclopropylmethyl)-1H-indol-2-yl]-7-methoxy-1-{[1-(6-methoxypyridin-3-yl)-1H pyrazol-4-yl]methyl}-1H-1,3-benzodiazole-5-carbonyl}-2-azabicyclo[2.2.1]heptan-7-amine] as the compound, how does the pIC50 read?
A: The pIC50 was 7.66.

Q: With `COc1cc(C(=O)N2C[C@H](N)C[C@@H](F)C2)cc2nc(-c3cc4ccccc4n3CC3CC3)n(Cc3ccccc3)c12` [Example 282, (3R,5R)-1-{1-benzyl-2-[1-(cyclopropylmethyl)-1H-indol-2-yl]-7-methoxy-1H-1,3-benzodiazole-5-carbonyl}-5-fluoropiperidin-3-amine] as the compound, how does the pIC50 read?
A: Its pIC50 is 6.11.

Q: With `CCn1cc(Cn2c(-c3cc4cccnc4n3CC3CC3)nc3cc(C(=O)N4C[C@H](N)C[C@@H](F)C4)cc(OC)c32)cn1` [Example 501, (3R,5R)-1-{2-[1-(cyclopropylmethyl)-1H-pyrrolo[2,3-b]pyridin-2-yl]-1-[(1-ethyl-1H-pyrazol-4-yl)methyl]-7-methoxy-1H-1,3-benzodiazole-5-carbonyl}-5-fluoropiperidin-3-amine] as the compound, how does the pIC50 read?
A: Its pIC50 is 6.87.

Q: With `COc1cc(C(=O)N2C[C@H]3CC[C@@H]2[C@@H]3N)cc2nc(-c3cc4ccccc4n3CC3CC3)n(CC3CN(C(=O)c4ccccc4C#N)C3)c12` [Example 159, 2-[3-({5-[(1R,4R,7R)-7-amino-2-azabicyclo[2.2.1]heptane-2-carbonyl]-2-[1-(cyclopropylmethyl)-1H-indol-2-yl]-7-methoxy-1H-1,3-benzodiazol-1-yl}methyl)azetidine-1-carbonyl]benzonitrile] as the compound, how does the pIC50 read?
A: Its pIC50 is 7.62.

Q: `COc1cc(C(=O)N2CC3CCC2[C@@H]3N)cc2nc(-c3cc4ccccc4n3CC3CC3)n(CC3CC3c3ccccc3)c12` (stereo partly drawn) [Example 479, (7R)-2-{2-[1-(cyclopropylmethyl)-1H-indol-2-yl]-7-methoxy-1-[(2-phenylcyclopropyl)methyl]-1H-1,3-benzodiazole-5-carbonyl}-2-azabicyclo[2.2.1]heptan-7-amine] was tested. Which pIC50 did it give?
A: Its pIC50 is 6.67.

Q: `COc1cc(C(=O)N2CC3CCC2[C@@H]3N)cc2nc(-c3cc4cccnc4n3CC3CC3)n(CC3CN(C(=O)C4CCC(F)(F)C4)C3)c12` (stereo partly drawn) [Example 430, (7R)-2-{2-[1-(cyclopropylmethyl)-1H-pyrrolo[2,3-b]pyridin-2-yl]-1-{[1-(3,3-difluorocyclopentanecarbonyl)azetidin-3-yl]methyl}-7-methoxy-1H-1,3-benzodiazole-5-carbonyl}-2-azabicyclo[2.2.1]heptan-7-amine] was tested. Which pIC50 did it give?
A: The pIC50 was 7.52.

Q: `COc1cc(C(=O)N2CC3CCC2[C@@H]3N)cc2nc(-c3cc4ccccc4n3CC3CC3)n(Cc3cnn(-c4cncc(C#N)c4)c3)c12` (stereo partly drawn) [Example 351, 5-[4-({5-[(7R)-7-amino~2-azabicyclo[2.2.1]heptane-2-carbonyl]-2-[1-(cyclopropylmethyl)-1H-indol-2-yl]-7-methoxy-1H-1,3-benzodiazol-1-yl}methyl)-1H-pyrazol-1-yl]pyridine-3-carbonitrile] was tested. Which pIC50 did it give?
A: The pIC50 was 7.74.

Q: With `CCS(=O)(=O)N1CC(n2c(-c3cc4cccnc4n3CC3CC3)nc3cc(C(=O)N4CC5CCC4[C@@H]5N)cc(OC)c32)C1` (stereo partly drawn) [Example 327, (1R,4R.,7R)-2-{2-[1-(cyclopropylmethyl)-1H-pyrrolo[2,3-b]pyridin-2-yl]-1-[1-(ethanesulfonyl)azetidin-3-yl]-7-methoy-1H-1,3-benzodiazole-5-carbonyl}-2-azabicyclo[2.2.1]heptan-7-amine] as the compound, how does the pIC50 read?
A: Its pIC50 is 7.24.

Q: How did the pIC50 turn out when `COc1cc(C(=O)N2CC3CCC2[C@@H]3N)cc2nc(-c3cc4cccnc4n3CC3CC3)n(Cc3cnn(-c4ccccc4)c3)c12` (stereo partly drawn) [Example 367, (7R)-2-{2-[1-(cyclopropylmethyl)-1H-pyrrolo[2,3-b]pyridin-2-yl]-7-methoxy-1-[(1-phenyl-1H-pyrazol-4-yl)methyl]-1H-1,3-benzodiazole-5-carbonyl}-2-azabicyclo[2.2.1]heptan-7-amine] was run?
A: Its pIC50 is 7.54.

Q: `COc1cc(C(=O)N2C[C@H]3CC[C@@H]2[C@@H]3N)cc2nc(-c3cc4ccccc4n3C)n(CC3CN(c4cncnc4C#N)C3)c12` [Example 44, 5-[3-({5-[(1R,4R,7R)-7-amino-2-azabicyclo[2.2.1]heptane-2-carbonyl]-7-methoxy-2-(1-methyl-1H-indol-2-yl)-1H-1,3-benzodiazol-1-yl}methyl)azetidin-1-yl]pyrimidine-4-carbonitrile] was tested. Which pIC50 did it give?
A: Its pIC50 is 6.95.

Q: `COc1cc(C(=O)N2C[C@H]3CC[C@@H]2[C@@H]3N)cc2nc(-c3cc4cccnc4n3CC3CC3)n(CC3CN(C(=O)c4ccncc4)C3)c12` [Example 117, (1R,4R,7R)-2-{2-[1-(cyclopropylmethyl)-1H-pyrrolo[2,3-b]pyridin-2-yl]-7-methoxy-1-{[1-(pyridine-4-carbonyl)azetidin-3-yl]methyl}-1H-1,3-benzodiazole-5-carbonyl}-2-azabicyclo[2.2.1]heptan-7-amine] was tested. Which pIC50 did it give?
A: Its pIC50 is 7.18.

Q: With `COc1cc(C(=O)N2C[C@H]3CC[C@@H]2[C@@H]3N)cc2nc(-c3cc4cccnc4n3C)n(CC3CN(c4nccnc4C#N)C3)c12` [Example 39, 3-[3-({5-[(1R,4R,7R)-7-amino-2-azabicyclo[2.2.1]heptane-2-carbonyl]-7-methoxy-2-{1-methyl-1H-pyrrolo[2,3-b]pyridin-2-yl}-1H-1,3-benzodiazol-1-yl}methyl)azetidin-1-yl]pyrazine-2-carbonitrile] as the compound, how does the pIC50 read?
A: Its pIC50 is 7.03.

Q: With `COc1cc(C(=O)N2CC3CCC2[C@@H]3N)cc2nc(-c3cc4cccnc4n3CC3CC3)n(C3CN(S(=O)(=O)c4ccc(C#N)cc4)C3)c12` (stereo partly drawn) [Example 339, 4-[(3-{5-[(1R,4R,7R)-7-amino-2-azabicyclo[2.2.1]heptane-2-carbonyl]-2-[1-(cyclopropylmethyl)-1H-pyrrolo[2,3-b]pyridin-2-yl]-7-methoxy-1H-1,3-benzodiazo1-1-yl}azetidin-1-yl)sulfonyl]benzonitrile] as the compound, how does the pIC50 read?
A: Its pIC50 is 6.27.

Reference: patent publication US12692254B2, “Benzimidazole inhibitors of PAD enzymes” (BRISTOL-MYERS SQUIBB COMPANY, priority 2018, dated 2026)
